{"source": "patent US9980986B2", "about": "“Methods of producing pancreatic hormones” (ViaCyte, Inc., priority 2006, dated 2018)", "molecules": {"B1": {"name": "Wnt3a: wingless-type MMTV integration site family member 3A (protein, UniProt P56704 19-352, looked up)", "Protein Wnt-3a": "SYPIWWSLAVGPQYSSLGSQPILCASIPGLVPKQLRFCRNYVEIMPSVAEGIKIGIQECQHQFRGRRWNCTTVHDSLAIFGPVLDKATRESAFVHAIASAGVAFAVTRSCAEGTAAICGCSSRHQGSPGKGWKWGGCSEDIEFGGMVSREFADARENRPDARSAMNRHNNEAGRQAIASHMHLKCKCHGLSGSCEVKTCWWSQPDFRAIGDFLKDKYDSASEMVVEKHRESRGWVETLRPRYTYFKVPTERDLVYYEASPNFCEPNPETGSFGTRDRTCNVSSHGIDGCDLLCCGRGHNARAERRREKCRCVFHWCCYVSCQECTRVYDVHTCK"}}, "key": {"[1]": {"test_system": "activin receptor-like (ALK) receptor", "test": "TGF-beta receptor family inhibitor added to cell cultures at stage 2 of differentiation", "format": "cell-based, human", "details": "about 2.5, 5 and 10 μM added to the cell cultures at stage 2", "excerpt": "The differentiation culture conditions were substantially similar to that described in d'Amour et al. 2006. d'Amour et al. 2006 describe a 5 step differentiation protocol: stage 1 (definitive endoderm; d 1-d 4), stage 2 (primitive gut tube or foregut endoderm; d 5 to d 8), stage 3 (posterior foregut or Pdx1 endoderm; d 9 to d 12), stage 4 (pancreatic endoderm, or pancreatic epithelium and endocrine precursor; d 13 to d 15) and stage 5 (hormone expressing endocrine cell, d 16 or more). As in d'Amour et al. 2006, the undifferentiated cells were cultured for one day (d 1) in RPMI containing 100 ng/ml Activin A (R&D Systems) and 25 ng/ml recombinant human WNT3a (R&D Systems), two days (d 2 and d 3) in RPMI medium containing 0.2% fetal bovine serum (FBS, Specialty Media) and 100 ng/ml Activin A. The embodiments described herein were slightly modified beginning at day 3 (d 3). The cells from day 3 (definitive endoderm) were cultured for three days (d 4 to d 6; foregut endoderm) in RPMI medium containing 2% FBS, 50 ng/ml recombinant human KGF/FGF7 (R&D Systems), and 0.25 μM KAAD-cyclopamine (Toronto Research Chemicals). Activin is removed from cells at this stage. […]"}, "[2]": {"test_system": "Human embryonic stem cell lines", "test": "hESC differentiation by 6-step 15-day protocol with or without Wnt3a in step 1, real-time quantitative PCR", "format": "cell-based", "details": "Wnt3a 25 ng/mL added during the first step", "experimental": "Human embryonic stem cell lines were also differentiated for 15 days via a 6-step protocol to achieve islet hormone-expressing cells. The first step comprised 3 days differentiation with either; i) activin A (100 ng/ml) or ii) activin A (100 ng/ml) and Wnt3a (25 ng/mL) to robustly produce DE (D'Amour, K., et al., Nature Biotechnology 23, 1534-1541, (2005)). Step 2 comprised 3 days differentiation in RPMI with 2% FBS containing FGF10 (50 ng/mL) and KAAD-cyclopamine (0.5 μM). Step 3 comprised 2 days differentiation in CMRL with B27 supplement (1:100) containing FGF10 (50 ng/mL), KAAD-cyclopamine (0.5 μM) and retinoic acid (2 μM). Step 4 comprised 2 days differentiation in CMRL with B27 supplement (1:100) containing retinoic acid (2 μM) and DAPT (1 μM). Step 5 comprised 2 days differentiation in CMRL with B27 supplement (1:100) containing DAPT (1 μM) and exendin 4 (40 ng/mL). Step 6 comprised 3 days differentiation in CMRL with B27 supplement (1:100) containing exendin 4 (40 ng/mL). Duplicate samples were taken from each plate at multiple time points and gene expression was analyzed by real-time quantitative PCR."}}}
{"molecule": "NC(=O)c1ccc(-c2nc(-c3ccc4c(c3)OCO4)c(-c3ccccn3)[nH]2)cc1", "note": "[SB-431542]", "values": [{"measurement": "Effect on cell differentiation", "setting": "[1]", "value": "potentiated cell differentiation"}]}
{"molecule": "B1", "values": [{"measurement": "Effect on endocrine cell differentiation", "setting": "[2]", "value": "marked enhancement of endocrine cell differentiation"}]}
